Key:
Format in all cases: cell-based, human
253JBV cells = assay: Proliferation with predicted CPX urine concentration in 20% normal urine; settings: 3 days treatment, 50 uM-1.5625 uM CPX in 20% normal urine, 72 h
Procedure: (§1) We next determined the effect of CPX in normal urine on T24 and 253JBV cells upon everyday treatment for up to 72 h (3 days treatment). The idea behind this experiment is to see the effect of predicted concentration of CPX in human urine on bladder cancer cells as the patient's bladder will be exposed every day to the predicted concentration of CPX. Three sets of plates were used, one plate each for one day treatment, two days treatment and three days treatment of CPX (50-1.5625 uM). T24 and 253JBV cells were incubated with CPX in normal urine (20% normal urine in complete RPMI media). […] The effect of CPX was determined by hexosaminidase assay beyond the 12 hours of varying CPX concentration (25 h, 48 h, and 72 h). In two days treatment, the cells are exposed to 50 uM-1.5625 uM for two days and the effect was determined by hexosaminidase assay at 48 h and 72 h time points. In three days treatment, the cells are exposed to 50 uM-1.5625 uM for three days and the effect was determined by hexosaminidase assay at 72 h time point.
253JBV Cells were incubated with CPX in normal urine (20% normal urine in complete RPMI media). […] The effect of CPX was determined by hexosaminidase assay beyond the 12 hours of varying CPX concentration (25 h, 48 h, and 72 h). […]

T24 cells = assay: as above; settings: 3 days treatment, 50 uM-1.5625 uM CPX in 20% normal urine, 72 h
Procedure: as §1
T24 Cells were incubated with CPX in normal urine (20% normal urine in complete RPMI media). […] The effect of CPX was determined by hexosaminidase assay beyond the 12 hours of varying CPX concentration (25 h, 48 h, and 72 h). […]

[1] = system: T24 cells transfected with Notch-1 intracellular domain (NICD); assay: Ectopic NICD expression and cell proliferation; settings: CPX 4 μM
Procedure: We determined whether ectopic expression of NICD reversed ciclopirox (CPX) mediated inhibition of cell proliferation. For this study, T24 Cells were transfected with plasmid EF.hICN1.CMV.GFP encoding the Notch-1 intracellular domain (NICD) or the empty vector EF.v-CMV.GFP (Addgene Inc.) and subsequently treated with CPX (4 μM). Cell proliferation was detected using hexoaminidase assay.

[2] = system: 253JBV bladder cancer cell spheroids; assay: Spheroid (bladdosphere) assay; settings: I generation, 7 days
Description: (§2) The spheroid assay, which is sometimes also called the 3D assay was developed as a method to propagate epithelial stem cells in vitro, and is now a standard surrogate reporter for stem cell activity. The assay (in this case called bladdosphere assay) is based on the hypothesis that the unique, undifferentiated cells present in bladder cancers will survive in suspension culture, while the other cells will die by anoikis. Therefore, we characterized the effect of ciclopirox (CPX) in bladdosphere assay. Here, cancer cells are plated in ultra-low binding plates and the resulting spheroids are believed to represent growth from stem cells.
(§3) For formation of spheroids, cells were cultured in RPMI 1640 (Mediatech) supplemented with 20 ng/mL bFGF (Invitrogen) 10 mL per 500 mL of 50×B27 supplement (Invitrogen) EGF 20 ng/mL (Invitrogen) and antibiotic and antimycotic solution. Cells were seeded at low densities (5000 cells/mL) in 6-well low adhesion plates. The cells were treated with increasing concentrations of CPX (0.5×, 1×, and 2× of IC50 calculated from cell proliferation assay—2 μM for 253JBV and 4 μM for T24). After 7 days the spheroids were photographed (I generation). Control spheroids and spheroids treated with CPX (1×IC50) were collected, trypsinized and re-plated for the secondary spheroid growth (II generation), followed by tertiary spheroid development (III generation).

[3] = system: T24 bladder cancer cell spheroids; assay: Spheroid (bladdosphere) assay; settings: I generation, 7 days
Description: as §2, §3

[4] = system: Notch1 signaling and γ-secretase complex proteins in T24 cells; assay: Western blot of Notch signaling pathway proteins; settings: bladder cancer cell lines (T24)
Procedure: Western blot studies were performed to detect the effect of CPX on the expression of proteins involved in Notch signaling pathway. Cell lysates were subjected to polyacrylamide gel electrophoresis and blotted onto Immobilon polyvinylidene difluoride membranes (Millipore, Bedford, Mass., USA). Antibodies were purchased from Cell Signaling Technology (Beverly, Mass., USA), Abcam Inc. (Cambridge, Mass., USA) and Santa Cruz Biotechnology Inc. (Santa Cruz, Calif., USA) and specific proteins were detected by the enhanced chemiluminescence system (GE Healthcare, Piscataway, N.J., USA).

Cc1cc(C2CCCCC2)n(O)c(=O)c1 [CPX, 6-cyclohexyl-1-hydroxy-4-methylpyridin-2(1H)-one]
maximum inhibition of proliferation (253JBV cells): 35% | maximum inhibition of proliferation (T24 cells): 20% | rescue of proliferation by NICD [1]: Ectopic expression of NICD reversed CPX mediated inhibition of cell proliferation | spheroid formation [2]: significant decrease in size and number of spheroids | spheroid formation [3]: significant decrease in size and number of spheroids | expression of Notch pathway proteins [4]: significantly inhibited the expression of the γ-secretase complex proteins

— patent US20170304329A1 (THE UNIVERSITY OF KANSAS, priority 2014, published 2017)
